molecular target: T1, human recombinant PDE10A (Homo sapiens, UniProt Q9Y233); test: Inhibition of PDE10, human recombinant PDE10A ([3H]-cAMP SPA); format: biochemical; details: Table 7; read-out: Human PDE10 (IC50 nM)
T1 construct: made in house; host or cells: SF21 insect cells (baculovirus)
Method: The gene was than inserted into a baculovirus vector, ligated with the baculovirus DNA. The enzyme-protein was expressed in SF21-cells. The enzyme was isolated from these cells by harvesting the cells by a centrifugation at 200 g to collect the cells. The cells were resuspended in 50 mM Tris-HCl/5 mM MgCl2 buffer (pH=7.4) and lysed by a sonication of the cells. The cytosolic PDE10A was obtained by a centrifugation at 48000 g for 1 h in the supernatant and stored at −70° C. PDE10 activity was determined in a one step procedure in microtiterplates. […] Nonspecific activity was tested without the enzyme. The reaction was initiated by addition of the substrate solution and was carried out at 37° C. for 30 minutes. Enzymatic activity was stopped by addition of 25 μl YSi-SPA-beads (Amersham-Pharmacia). One hour later the mixture was measured in a liquid scintillation counter for microtiterplates (Microbeta Trilux). To pipette the incubation mixture a robot Biomek (Fa. Beckman) is used. […] For determination of IC50 values the Hill-plot, 2-parameter-model, was used.

T1 sequence (Q9Y233 1-779 isoform Q9Y233-1): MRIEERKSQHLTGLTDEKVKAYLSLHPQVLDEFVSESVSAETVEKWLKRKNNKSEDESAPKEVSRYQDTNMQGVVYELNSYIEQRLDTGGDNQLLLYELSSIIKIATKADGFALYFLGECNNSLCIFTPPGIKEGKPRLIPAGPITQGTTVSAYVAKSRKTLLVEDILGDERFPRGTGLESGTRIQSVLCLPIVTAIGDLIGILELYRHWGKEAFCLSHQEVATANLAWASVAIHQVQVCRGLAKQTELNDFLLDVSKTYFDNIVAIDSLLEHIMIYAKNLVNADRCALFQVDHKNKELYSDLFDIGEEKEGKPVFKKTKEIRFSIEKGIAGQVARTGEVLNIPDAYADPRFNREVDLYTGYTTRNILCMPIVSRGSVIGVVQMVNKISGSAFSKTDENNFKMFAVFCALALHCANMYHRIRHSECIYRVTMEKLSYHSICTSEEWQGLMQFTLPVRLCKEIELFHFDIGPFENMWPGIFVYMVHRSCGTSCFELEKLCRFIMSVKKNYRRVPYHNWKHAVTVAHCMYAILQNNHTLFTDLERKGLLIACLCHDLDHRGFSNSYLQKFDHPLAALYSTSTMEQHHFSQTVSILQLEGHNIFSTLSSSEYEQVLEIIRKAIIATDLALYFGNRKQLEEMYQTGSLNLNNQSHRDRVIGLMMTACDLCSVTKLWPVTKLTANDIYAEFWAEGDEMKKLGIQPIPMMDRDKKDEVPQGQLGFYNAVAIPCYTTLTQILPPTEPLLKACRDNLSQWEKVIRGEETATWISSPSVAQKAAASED

Q: `COc1ccc2nc(C#N)c3c(C)nc(-c4cc(Cl)ccc4Cl)n3c2n1` [Example 40, 9-(2,5-Dichlorophenyl)-2-methoxy-7-methylimidazo[1,5-a]pyrido[3,2-e]pyrazine-6-carbonitrile] was tested. Which IC50 did it give?
A: 10 to 100 nM

Q: How did the IC50 turn out when `COc1ccc2nc(C)c3c(C(F)(F)F)nc(-c4cnccc4OC)n3c2n1` [Example 34, 2-Methoxy-9-(4-methoxypyridin-3-yl)-6-methyl-7-(trifluoromethyl)imidazo[1,5-a]pyrido[3,2-e]pyrazine] was run?
A: > 100 nM

Q: Which IC50 does the source give for `COc1ccc2nc(C)c3c(C)nc(-c4ccc(Cl)cc4F)n3c2n1` [Example 17, 9-(4-Chloro-2-fluorophenyl)-2-methoxy-6,7-dimethylimidazo[1,5-a]pyrido[3,2-e]pyrazine] here?
A: 10 to 100 nM

Q: How did the IC50 turn out when `COc1ccc2nc(C)c3c(C(F)(F)F)nc(-c4cc(C(N)=O)ccc4F)n3c2n1` [Example 36, 4-Fluoro-3-[2-methoxy-6-methyl-7-(trifluoromethyl)imidazo[1,5-a]pyrido[3,2-e]pyrazin-9-yl]benzamide] was run?
A: 10 to 100 nM

Q: Which IC50 does the source give for `COc1ccc2nc(NS(C)(=O)=O)c3c(C(F)(F)F)nc(-c4ccccc4C)n3c2n1` [Example 39, N-[2-Methoxy-9-(2-methylphenyl)-7-(trifluoromethyl)imidazo[1,5-a]pyrido[3,2-e]pyrazin-6-yl]methanesulfonamide] here?
A: < 10 nM

same assay, conditions: Table 8, cell marked Human PDE10; read-out: IC50 (nM) (Human PDE10)

Q: Which IC50 does the source give for `CCCc1nc(C)c2c(C)nc3ccc(=O)[nH]c3n12` [Example 46, 6,7-Dimethyl-9-propylimidazo[1,5-a]pyrido[3,2-e]pyrazin-2(1H)-one] here?
A: > 100 nM

same assay, conditions: Table 9; read-out: hPDE10 IC50

Q: How did the IC50 turn out when `COc1ccc2nc(C)c3c(C)nc(-c4ccc(C(N)=O)c(Cl)c4)n3c2n1` [Example 132, 2-chloro-4-(2-methoxy-6,7-dimethylimidazo[1,5-a]pyrido[3,2-e]pyrazin-9-yl)benzamide] was run?
A: < 10 nM

Q: For `COc1ccc2nc(C#N)c3c(C)nc(-c4ccncc4)n3c2n1` [Example 170, 2-methoxy-7-methyl-9-pyridin-4-ylimidazo[1,5-a]pyrido[3,2-e]pyrazine-6-carbonitrile], which IC50 is on record?
A: > 100 nM

Q: How did the IC50 turn out when `COc1ccc2nc(C)c3c(C)nc(-c4ccc5[nH]ccc5c4)n3c2n1` [Example 177, 9-(1H-indol-5-yl)-2-methoxy-6,7-dimethylimidazo[1,5-a]pyrido[3,2-e]pyrazine] was run?
A: < 10 nM

Q: How did the IC50 turn out when `COc1ccc2nc(C)c3c(C)nc(-c4cnn(CC(C)C)c4)n3c2n1` [Example 182, 2-methoxy-6,7-dimethyl-9-[1-(2-methylpropyl)-1H-pyrazol-4-yl]imidazo[1,5-yl}imidazo[1,5-a]pyrido[3,2-e]pyrazine] was run?
A: > 100 nM

Q: `COc1ccc2nc(C)c3c(C)nc(-c4ccc(Cl)c(C(N)=O)c4)n3c2n1` [Example 131, 2-chloro-5-(2-methoxy-6,7-dimethylimidazo[1,5-a]pyrido[3,2-e]pyrazin-9-yl)benzamide] was tested. Which IC50 did it give?
A: 10 to 100 nM

Q: `Cc1ccccc1-c1nc(C)c2c(C)nc3ccc(OCCF)nc3n12` [Example 154, 2-(2-fluoroethoxy)-6,7-dimethyl-9-(2-methylphenyl)imidazo[1,5-a]pyrido[3,2-e]pyrazine] was tested. Which IC50 did it give?
A: < 10 nM

Q: How did the IC50 turn out when `COc1ccc2nc(C)c3c(C)nc(-c4ccnc(F)c4)n3c2n1` [Example 174, 9-(2-fluoropyridin-4-yl)-2-methoxy-6,7-dimethylimidazo[1,5-a]pyrido[3,2-e]pyrazine] was run?
A: 10 to 100 nM

Q: `CCCn1cc(-c2nc(C)c3c(C)nc4ccc(OC)nc4n23)cn1` [Example 189, 2-methoxy-6,7-dimethyl-9-(1-propyl-1H-pyrazol-4-yl)imidazo[1,5-a]pyrido[3,2-e]pyrazine] was tested. Which IC50 did it give?
A: > 100 nM

Q: `Cc1cc(C(N)=O)ccc1-c1nc(C)c2c(C)nc3ccc(OCC4CC4)nc3n12` [Example 150, 4-[2-(cyclopropylmethoxy)-6,7-dimethylimidazo[1,5-a]pyrido[3,2-e]pyrazin-9-yl]-3-methylbenzamide] was tested. Which IC50 did it give?
A: < 10 nM

Q: How did the IC50 turn out when `Cc1ccc(Cl)cc1-c1nc(C)c2c(C)nc3ccc(OCC4CC4)nc3n12` [Example 134, 9-(5-chloro-2-methylphenyl)-2-(cyclopropylmethoxy)-6,7-dimethylimidazo[1,5-a]pyrido[3,2-e]pyrazine] was run?
A: 10 to 100 nM

Q: For `Cc1nc(-c2ccc(Cl)cc2C(F)(F)F)n2c1c(C)nc1ccc(OCC3CC3)nc12` [Example 137, 9-[4-chloro-2-(trifluoromethyl)phenyl]-2-(cyclopropylmethoxy)-6,7-dimethylimidazo[1,5-a]pyrido[3,2-e]pyrazine], which IC50 is on record?
A: 10 to 100 nM

Q: `Cc1ccccc1-c1nc(C)c2c(C)nc3ccc(OCC(F)(F)F)nc3n12` [Example 155] was tested. Which IC50 did it give?
A: 10 to 100 nM

Q: For `Cc1c(F)cccc1-c1nc(C)c2c(C)nc3ccc(OCC4CC4)nc3n12` [Example 136, 2-(cyclopropylmethoxy)-9-(3-fluoro-2-methylphenyl)-6,7-dimethylimidazo[1,5-a]pyrido[3,2-e]pyrazine], which IC50 is on record?
A: < 10 nM

Q: For `COc1ccc2nc(C)c3c(C)nc(-c4ccc(N(C)C)nc4)n3c2n1` [Example 178, 5-(2-methoxy-6,7-dimethylimidazo[1,5-a]pyrido[3,2-e]pyrazin-9-yl)-N,N-dimethylpyridin-2-amine], which IC50 is on record?
A: > 100 nM

Q: For `Cc1cc(C(=O)O)ccc1-c1nc(C)c2c(C)nc3ccc(OCC4CC4)nc3n12` [Example 147, 4-[2-(cyclopropylmethoxy)-6,7-dimethylimidazo[1,5-a]pyrido[3,2-e]pyrazin-9-yl]-3-methylbenzoic acid], which IC50 is on record?
A: > 100 nM

Q: How did the IC50 turn out when `Cc1nc(-c2ccc(F)c(C(N)=O)c2)n2c1c(C)nc1ccc(OCC3CC3)nc12` [Example 144, 5-(2-(cyclopropylmethoxy)-6,7-dimethylimidazo[1,5-a]pyrido[3,2-e]pyrazin-9-yl)-2-fluorobenzamide] was run?
A: < 10 nM

Q: For `COc1ccc2nc(C#N)c3c(C)nc(-c4cc(C(N)=O)ccc4F)n3c2n1` [Example 166, 3-(6-cyano-2-methoxy-7-methylimidazo[1,5-a]pyrido[3,2-e]pyrazin-9-yl)-4-fluorobenzamide], which IC50 is on record?
A: < 10 nM

Q: For `COc1ccc2nc(C#N)c3c(C)nc(-c4ccc(F)nc4C)n3c2n1` [Example 172, 9-(6-fluoro-2-methylpyridin-3-yl)-2-methoxy-7-methylimidazo[1,5-a]pyrido[3,2-e]pyrazine-6-carbonitrile], which IC50 is on record?
A: > 100 nM

Q: How did the IC50 turn out when `Cc1ccccc1-c1nc(C)c2c(C)nc3ccc(=O)[nH]c3n12` [Example 152, 6,7-Dimethyl-9-o-tolylimidazo[1,5-a]pyrido[3,2-e]pyrazin-2(1H)-one] was run?
A: 10 to 100 nM

Q: For `Cc1nc(-c2cc(F)cc(C(N)=O)c2)n2c1c(C)nc1ccc(OCC3CC3)nc12` [Example 145, 3-[2-(cyclopropylmethoxy)-6,7-dimethylimidazo[1,5-a]pyrido[3,2-e]pyrazin-9-yl]-5-fluorobenzamide], which IC50 is on record?
A: < 10 nM

Q: For `COc1ccc2nc(C#N)c3c(C)nc(-c4cccnc4)n3c2n1` [Example 171, 2-methoxy-7-methyl-9-pyridin-3-ylimidazo[1,5-a]pyrido[3,2-e]pyrazine-6-carbonitrile], which IC50 is on record?
A: 10 to 100 nM

Q: How did the IC50 turn out when `Cc1ccc(C(N)=O)cc1-c1nc(C)c2c(C)nc3ccc(OCC4CC4)nc3n12` [Example 149, 3-[2-(cyclopropylmethoxy)-6,7-dimethylimidazo[1,5-a]pyrido[3,2-e]pyrazin-9-yl]-4-methylbenzamide] was run?
A: < 10 nM

Q: `Cc1ccccc1-c1nc(C)c2c(C)nc3ccc(OCc4ccc(F)cc4)nc3n12` [Example 157, 2-[(4-fluorobenzyl)oxy]-6,7-dimethyl-9-(2-methylphenyl)imidazo[1,5-a]pyrido[3,2-e]pyrazine] was tested. Which IC50 did it give?
A: 10 to 100 nM

Q: Which IC50 does the source give for `Cc1nc(-c2ccc(F)cc2Cl)n2c1c(C)nc1ccc(OCC3CC3)nc12` [Example 138, 9-(2-chloro-4-fluorophenyl)-2-(cyclopropylmethoxy)-6,7-dimethylimidazo[1,5-a]pyrido[3,2-e]pyrazine] here?
A: < 10 nM

Q: For `COc1ccc2nc(C)c3c(C)nc(-c4cnn(CCN5CCOCC5)c4)n3c2n1` [Example 190, 2-methoxy-6,7-dimethyl-9-[1-(2-morpholin-4-ylethyl)-1H-pyrazol-4-yl]imidazo[1,5-a]pyrido[3,2-e]pyrazine], which IC50 is on record?
A: > 100 nM

Q: How did the IC50 turn out when `COc1ccc2nc(C#N)c3c(C)nc(-c4ccccc4C)n3c2n1` [Example 165, 2-methoxy-7-methyl-9-(2-methylphenyl)imidazo[1,5-a]pyrido[3,2-e]pyrazine-6-carbonitrile] was run?
A: 10 to 100 nM

Q: How did the IC50 turn out when `COc1cncc(-c2nc(C)c3c(C)nc4ccc(OC)nc4n23)c1` [Example 184, 2-methoxy-9-(5-methoxypyridin-3-yl)-6,7-dimethylimidazo[1,5-a]pyrido[3,2-e]pyrazine] was run?
A: < 10 nM

Q: For `Cc1nc(-c2cccc(S(N)(=O)=O)c2)n2c1c(C)nc1ccc(OCC3CC3)nc12` [Example 148, 3-[2-(cyclopropylmethoxy)-6,7-dimethylimidazo[1,5-a]pyrido[3,2-e]pyrazin-9-yl]benzenesulfonamide], which IC50 is on record?
A: > 100 nM

Q: Which IC50 does the source give for `COc1ccc2nc(C)c3c(C)nc(-c4ccc(N5CCOCC5)nc4)n3c2n1` [Example 187, 2-methoxy-6,7-dimethyl-9-(6-morpholin-4-ylpyridin-3-yl)imidazo[1,5-a]pyrido[3,2-e]pyrazine] here?
A: > 100 nM

Q: How did the IC50 turn out when `Cc1ccncc1-c1nc(C)c2c(C)nc3ccc(OCC4CC4)nc3n12` [Example 140, 2-(cyclopropylmethoxy)-6,7-dimethyl-9-(4-methylpyridin-3-yl)imidazo[1,5-a]pyrido[3,2-e]pyrazine] was run?
A: 10 to 100 nM

Q: With `COc1ccc2nc(C)c3c(C)nc(-c4cccnc4F)n3c2n1` [Example 175, 9-(2-fluoropyridin-3-yl)-2-methoxy-6,7-dimethylimidazo[1,5-a]pyrido[3,2-e]pyrazine] as the molecule, how does the IC50 read?
A: < 10 nM
